≈ marks a conversion by molar mass, not a printed value. Entries after “also recorded” stand apart in the source; their conditions may differ. Values belong to the molecule of their own block, whether it stands above or below them.
Key:
[1] = In vivo pharmacokinetic studies; parameters: species or system CD-1 mice; details: for clearance / AUC(0-inf) / Vd / Cmax / bioavailability / half-life: male, CD-1, mouse, plasma
[2] = Clinical observations during mouse PK studies; format: in vivo; details: CD-1 mice; for tolerability / clinical signs: 3 mg/kg iv and 10 mg/kg po
MV4:11 = test: Cell proliferation assay; format: cell-based; details: GI50,K562/GI50,MV4:11
WDR5 = WDR5 (Homo sapiens, UniProt P61964); test: TR-FRET competition assay against MLL1-derived 10-mer-Thr-FAM peptide probe; format: binding
K562 = test: Cell proliferation assay; format: cell-based; details: Homo sapiens, K562, 120 h, read-out: Cell Proliferation Assays GI50 (nM) K562
Kinetic solubility assay = format: physicochemical; details: phosphate-buffered saline, pH 7.4
[3] = Microsomal intrinsic clearance assay; format: in vitro ADME; details: rat, pooled liver microsomes
MV4:11 cancer cells = details: cited from earlier work
MV4:11 mouse xenograft = details: ip (DDO-2093) and po (DDO-2213) dosing; cited from earlier work
mouse models = details: cited from earlier work

SMILES: COc1cc(CN2CCc3c(cc(Cn4ccn(C)c4=N)cc3-c3ccc(F)cc3C)C2=O)cc(OC)c1 [Compound 1]
oral exposure ([1]; CD-1 mice, 3 mg/kg po): below the limit of quantitation
clearance ([1]; iv, 3 mg/kg): 78 mL/min/kg
acute toxicity signs ([2]; 3 mg/kg iv, 3 mg/kg): signs of severe acute toxicity; also recorded: lethality

SMILES: COc1cc(CN2CCc3c(cc(Cn4cccn4)cc3-c3cn(C)nc3C(F)(F)F)C2=O)cc(OC)c1 [Compound 17, 7-((1H-Pyrazol-1-yl)methyl)-2-(3,5-dimethoxybenzyl)-5-(1-methyl-3-(trifluoromethyl)-1H-pyrazol-4-yl)-3,4-dihydroisoquinolin-1(2H)-one]
Selectivity K562/MV4:11 (MV4:11): >1

SMILES: COc1cc(CN2CCc3c(cc(Cn4cccc4)cc3-c3cn(C)nc3C(F)(F)F)C2=O)cc(OC)c1 [Compound 18, 7-((1H-Pyrrol-1-yl)methyl)-2-(3,5-dimethoxybenzyl)-5-(1-methyl-3-(trifluoromethyl)-1H-pyrazol-4-yl)-3,4-dihydroisoquinolin-1(2H)-one]
Selectivity K562/MV4:11 (MV4:11): >2

SMILES: COc1cc(CN2CCc3c(cc(Cn4cnnc4)cc3-c3cn(C)nc3C(F)(F)F)C2=O)cc(OC)c1 [Compound 19, 7-((4H-1,2,4-Triazol-4-yl)methyl)-2-(3,5-dimethoxybenzyl)-5-(1-methyl-3-(trifluoromethyl)-1H-pyrazol-4-yl)-3,4-dihydroisoquinolin-1(2H)-one]
Selectivity K562/MV4:11 (MV4:11): >2

SMILES: CCc1nccn1Cc1cc2c(c(-c3cn(C)nc3C(F)(F)F)c1)CCN(Cc1cc(OC)cc(OC)c1)C2=O [Compound 21, 2-(3,5-Dimethoxybenzyl)-7-((2-ethyl-1H-imidazol-1-yl)methyl)-5-(1-methyl-3-(trifluoromethyl)-1H-pyrazol-4-yl)-3,4-dihydroisoquinolin-1(2H)-one]
Ki (WDR5): 0.022 ± 0.001 nM

GI50 (K562): 16000 ± 3100 nM
SMILES: COc1cc(CN2CCc3c(cc(Cn4ccnc4C(C)C)cc3-c3cn(C)nc3C(F)(F)F)C2=O)cc(OC)c1 [Compound 22, 2-(3,5-Dimethoxybenzyl)-7-((2-isopropyl-1H-imidazol-1-yl)methyl)-5-(1-methyl-3-(trifluoromethyl)-1H-pyrazol-4-yl)-3,4-dihydroisoquinolin-1(2H)-one]

SMILES: COc1cc(CN2CCc3c(cc(Cn4ccnc4C(F)F)cc3-c3cn(C)nc3C(F)(F)F)C2=O)cc(OC)c1 [Compound 24, 7-((2-(Difluoromethyl)-1H-imidazol-1-yl)methyl)-2-(3,5-dimethoxybenzyl)-5-(1-methyl-3-(trifluoromethyl)-1H-pyrazol-4-yl)-3,4-dihydroisoquinolin-1(2H)-one]
Selectivity K562/MV4:11 (MV4:11): >3

SMILES: CCn1cc(-c2cc(Cn3ccnc3C)cc3c2CCN([C@@H](C)c2cc(OC)ccn2)C3=O)c(C(F)(F)F)n1 [Compound 34, (S)-5-(1-Ethyl-3-(trifluoromethyl)-1H-pyrazol-4-yl)-2-(1-(4-methoxypyridin-2-yl)ethyl)-7-((2-methyl-1H-imidazol-1-yl)methyl)-3,4-dihydroisoquinolin-1(2H)-one]
clearance ([1]; iv, 3 mg/kg): 118 mL/min/kg
tolerability / clinical signs [2]: behaved normally during the study and showed no adverse effects

SMILES: CCn1cc(-c2cc(Cn3ccnc3C)cc3c2CCN([C@H](c2cc(OC)ccn2)C2CC2)C3=O)c(C(F)(F)F)n1 [Compound 36, (S)-2-(Cyclopropyl(4-methoxypyridin-2-yl)methyl)-5-(1-ethyl-3-(trifluoromethyl)-1H-pyrazol-4-yl)-7-((2-methyl-1H-imidazol-1-yl)methyl)-3,4-dihydroisoquinolin-1(2H)-one]
Ki (WDR5): < 0.02 nM
GI50 (K562): 2600 ± 1500 nM
solubility kinetic at 1 h (Kinetic solubility assay): 65 µM (≈ 36.7 µg/mL)
AUC(0-inf) ([1]; iv, 3 mg/kg): 1240 ng·h/mL
Vd ([1]; iv, 3 mg/kg): 1.6 L/kg
clearance ([1]; iv, 3 mg/kg): 41 mL/min/kg
AUC(0-inf) ([1]; po, 10 mg/kg): 508 ng·h/mL
Cmax ([1]; po, 10 mg/kg): 652 ng/mL
bioavailability ([1]; po, 10 mg/kg): 12%
half-life ([1]; po, 10 mg/kg): 84 min
tolerability / clinical signs [2]: behaved normally during the study and showed no adverse effects

SMILES: CCn1cc(-c2cc(Cn3ccnc3C)cc3c2CCN([C@H](c2cc(C)ccn2)C2CC2)C3=O)c(C(F)(F)F)n1 [Compound 37, (S)-2-(Cyclopropyl(4-methylpyridin-2-yl)methyl)-5-(1-ethyl-3-(trifluoromethyl)-1H-pyrazol-4-yl)-7-((2-methyl-1H-imidazol-1-yl)methyl)-3,4-dihydroisoquinolin-1(2H)-one]
clearance ([1]; iv, 3 mg/kg): 25 mL/min/kg
tolerability / clinical signs [2]: behaved normally during the study and showed no adverse effects

SMILES: CCn1cc(-c2cc(Cn3ccnc3)cc3c2CCN([C@@H](C)c2cc(OC)ccn2)C3=O)c(C(F)(F)F)n1 [Compound 38, (S)-7-((1H-Imidazol-1-yl)methyl)-5-(1-ethyl-3-(trifluoromethyl)-1H-pyrazol-4-yl)-2-(1-(4-methoxypyridin-2-yl)ethyl)-3,4-dihydroisoquinolin-1(2H)-one]
Ki (WDR5): < 0.02 nM
Selectivity K562/MV4:11 (MV4:11): 200
GI50 (K562): 1900 ± 1800 nM
solubility kinetic at 1 h (Kinetic solubility assay): 86 µM (≈ 45.1 µg/mL)
half-life at 1 μM [3]: 22 min
microsomal CLint at 1 μM [3]: 31 µL/min/mg
AUC(0-inf) ([1]; iv, 3 mg/kg): 707 ng·h/mL
Vd ([1]; iv, 3 mg/kg): 2.3 L/kg
clearance ([1]; iv, 3 mg/kg): 76 mL/min/kg
bioavailability ([1]; oral, 10 mg/kg): 73%
AUC(0-inf) ([1]; po, 10 mg/kg): 1710 ng·h/mL
Cmax ([1]; po, 10 mg/kg): 2010 ng/mL
half-life ([1]; po, 10 mg/kg): 72 min
tolerability / clinical signs [2]: behaved normally during the study and showed no adverse effects

SMILES: CCn1cc(-c2cc(Cn3ccnc3)cc3c2CCN([C@H](c2cc(OC)ccn2)C2CC2)C3=O)c(C(F)(F)F)n1 [Compound 40, (S)-7-((1H-Imidazol-1-yl)methyl)-2-(cyclopropyl(4-methoxypyridin-2-yl)methyl)-5-(1-ethyl-3-(trifluoromethyl)-1H-pyrazol-4-yl)-3,4-dihydroisoquinolin-1(2H)-one]
tolerability / clinical signs [2]: behaved normally during the study and showed no adverse effects

SMILES: CCn1cc(-c2cc(Cn3ccnc3)cc3c2CCN([C@H](c2cc(C)ccn2)C2CC2)C3=O)c(C(F)(F)F)n1 [Compound 41, (S)-7-((1H-Imidazol-1-yl)methyl)-2-(cyclopropyl(4-methylpyridin-2-yl)methyl)-5-(1-ethyl-3-(trifluoromethyl)-1H-pyrazol-4-yl)-3,4-dihydroisoquinolin-1(2H)-one]
Ki (WDR5): < 0.02 nM
Selectivity K562/MV4:11 (MV4:11): 290
GI50 (K562): 3700 ± 3100 nM
solubility kinetic at 1 h (Kinetic solubility assay): 60 µM (≈ 32.1 µg/mL)
AUC(0-inf) ([1]; iv, 3 mg/kg): 1950 ng·h/mL
Vd ([1]; iv, 3 mg/kg): 1.6 L/kg
clearance ([1]; iv, 3 mg/kg): 26 mL/min/kg
bioavailability ([1]; oral, 10 mg/kg): 61%
AUC(0-inf) ([1]; po, 10 mg/kg): 3980 ng·h/mL
Cmax ([1]; po, 10 mg/kg): 2080 ng/mL
half-life ([1]; po, 10 mg/kg): 78 min
tolerability / clinical signs [2]: behaved normally during the study and showed no adverse effects

SMILES: Cc1c(F)c(N)cc(C(=O)Nc2cc(-n3cc(C(=O)NCCCN4CCOCC4)nn3)ccc2N2CCN(C)CC2)c1Cl [DDO-2093]
GI50 (MV4:11 cancer cells): ~10 µM
in vivo tumor growth inhibition (MV4:11 mouse xenograft): marginal in vivo tumor growth inhibition

SMILES: CN1CCN(c2cc(F)c(-c3ccc(NC(=O)N(C)C)cc3)cc2Nc2ncnc(Cl)c2N)CC1 [DDO-2213]
GI50 (MV4:11 cancer cells): ~10 µM
in vivo tumor growth inhibition (MV4:11 mouse xenograft): marginal in vivo tumor growth inhibition

SMILES: Cc1ncsc1-c1ccc([C@H](C)NC(=O)[C@@H]2C[C@@H](O)CN2C(=O)[C@@H](NC(=O)CNC(=O)c2ccc(F)c(-c3ccc(N4C[C@@H](C)N(C)[C@@H](C)C4)c(NC(=O)c4c[nH]c(=O)cc4C(F)(F)F)c3)c2)C(C)(C)C)cc1 [MS67]
in vivo tumor growth inhibition (mouse models): demonstrated in vivo tumor growth inhibition

Source: article PMC10081510 (Journal of medicinal chemistry, 2022)
